From US8435980B2 (AbbVie Inc., priority 2009, dated 2013)

Biological target: T1, Cdc7 (BEV coexpressed huCDC7/DBF4) (Homo sapiens, UniProt O00311)
T1 construct: made in house; host or cells: BEV (baculovirus expression vector) co-expression; insect cells are implied but no cell line is named
Test: Cdc7 enzyme inhibition assay ([33P]ATP, biotinylated peptide substrate, FlashPlate)
Format: biochemical
Conditions: Table 3; enzyme inhibition data (Ki)
Description: Cdc7 (BEV coexpressed huCDC7/DBF4) is prepared internally. Cdc7 assays are conducted as follows with final concentrations as listed. […] Reactions are quenched after 1 hr by the addition of 90 μL stop buffer (50 mM EDTA, 2M NaCl). […] (Ki) for exemplary compounds.

T1 sequence (O00311 whole entry): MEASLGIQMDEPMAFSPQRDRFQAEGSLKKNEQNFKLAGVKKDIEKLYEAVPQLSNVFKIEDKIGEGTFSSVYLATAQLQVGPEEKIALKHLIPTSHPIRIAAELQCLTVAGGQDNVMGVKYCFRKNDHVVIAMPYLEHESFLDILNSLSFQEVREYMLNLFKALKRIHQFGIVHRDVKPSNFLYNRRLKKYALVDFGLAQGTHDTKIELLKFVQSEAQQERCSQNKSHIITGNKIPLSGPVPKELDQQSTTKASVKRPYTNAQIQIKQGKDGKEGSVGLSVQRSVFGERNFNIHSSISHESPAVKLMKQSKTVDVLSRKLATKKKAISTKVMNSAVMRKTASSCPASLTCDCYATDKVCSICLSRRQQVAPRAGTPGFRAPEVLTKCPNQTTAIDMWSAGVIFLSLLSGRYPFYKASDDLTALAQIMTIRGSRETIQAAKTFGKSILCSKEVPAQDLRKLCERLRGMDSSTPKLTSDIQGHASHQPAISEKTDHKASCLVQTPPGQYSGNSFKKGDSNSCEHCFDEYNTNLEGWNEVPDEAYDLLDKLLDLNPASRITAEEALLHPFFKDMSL
T1 sequence (Q9UBU7 whole entry partner): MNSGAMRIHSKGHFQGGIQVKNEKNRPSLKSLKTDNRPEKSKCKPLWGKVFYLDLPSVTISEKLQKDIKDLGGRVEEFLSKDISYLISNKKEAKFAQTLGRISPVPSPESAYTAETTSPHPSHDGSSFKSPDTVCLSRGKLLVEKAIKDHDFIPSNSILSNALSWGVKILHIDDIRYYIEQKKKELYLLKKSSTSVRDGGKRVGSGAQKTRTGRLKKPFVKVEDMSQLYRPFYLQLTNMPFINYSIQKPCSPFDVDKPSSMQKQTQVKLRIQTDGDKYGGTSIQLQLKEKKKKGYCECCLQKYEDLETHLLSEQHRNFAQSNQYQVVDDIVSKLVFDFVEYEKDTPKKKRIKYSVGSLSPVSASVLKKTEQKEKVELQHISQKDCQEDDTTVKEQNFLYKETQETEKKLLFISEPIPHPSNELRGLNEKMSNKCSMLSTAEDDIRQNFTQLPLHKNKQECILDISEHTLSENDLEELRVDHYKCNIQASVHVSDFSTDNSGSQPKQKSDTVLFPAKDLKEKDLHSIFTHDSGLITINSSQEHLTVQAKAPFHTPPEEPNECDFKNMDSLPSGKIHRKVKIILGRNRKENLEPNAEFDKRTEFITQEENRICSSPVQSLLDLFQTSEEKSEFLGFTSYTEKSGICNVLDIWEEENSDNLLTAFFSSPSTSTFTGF

Ki, < 10 nM:
Clc1cc(-c2c[nH]c3ncccc23)cc(NCC2CCCN(C3CCC3)C2)n1 (stereo not shown) [Example 95, 6-chloro-N-[(1-cyclobutylpiperidin-3-yl)methyl]-4-(1H-pyrrolo[2,3-b]pyridin-3-yl)pyridin-2-amine]
Clc1cc(-c2c[nH]c3ncccc23)cc(NCC2CCCN(Cc3cccnc3)C2)n1 (stereo not shown) [Example 96, 6-chloro-N-{[1-(pyridin-3-ylmethyl)piperidin-3-yl]methyl}-4-(1H-pyrrolo[2,3-b]pyridin-3-yl)pyridin-2-amine]
CS(=O)(=O)N1CCCC(CNc2cc(-c3c[nH]c4ncccc34)cc(Cl)n2)C1 (stereo not shown) [Example 97, 6-chloro-N-((1-(methylsulfonyl)piperidin-3-yl)methyl)-4-(1H-pyrrolo[2,3-b]pyridin-3-yl)pyridin-2-amine]
CCNC(=O)N1CCCC(CNc2cc(-c3c[nH]c4ncccc34)cc(Cl)n2)C1 (stereo not shown) [Example 98, 3-((6-chloro-4-(1H-pyrrolo[2,3-b]pyridin-3-yl)pyridin-2-ylamino)methyl)-N-ethylpiperidine-1-carboxamide]
CNC(=O)N[C@H]1CC[C@H](Nc2cc(-c3c[nH]c4ncccc34)cc(Cl)n2)CC1 [Example 99, 1-(trans-4-{[6-chloro-4-(1H-pyrrolo[2,3-b]pyridin-3-yl)pyridin-2-yl]amino}cyclohexyl)-3-methylurea]
CC(=O)N1CCCC(CNc2cc(-c3c[nH]c4ncccc34)cc(Cl)n2)C1 (stereo not shown) [Example 100, 1-[3-({[6-chloro-4-(1H-pyrrolo[2,3-b]pyridin-3-yl)pyridin-2-yl]amino}methyl)piperidin-1-yl]ethanone]
O=S(=O)(C1CC1)N1CCCC(CNc2cc(-c3c[nH]c4ncccc34)cc(Cl)n2)C1 (stereo not shown) [Example 101, 6-chloro-N-{[1-(cyclopropylsulfonyl)piperidin-3-yl]methyl}-4-(1H-pyrrolo[2,3-b]pyridin-3-yl)pyridin-2-amine]
O=C(C1CC1)N1CCCC(Nc2cc(-c3c[nH]c4ncccc34)cc(Cl)n2)C1 (stereo not shown) [Example 102, (3-{[6-chloro-4-(1H-pyrrolo[2,3-b]pyridin-3-yl)pyridin-2-yl]amino}piperidin-1-yl)(cyclopropyl)methanone]
Clc1cc(-c2c[nH]c3ncccc23)cc(NC2CCCC(NCC3CC3)C2)n1 (stereo not shown) [Example 103, N-[6-chloro-4-(1H-pyrrolo[2,3-b]pyridin-3-yl)pyridin-2-yl]-N′-(cyclopropylmethyl)cyclohexane-1,3-diamine]
Clc1cc(-c2c[nH]c3ncccc23)cc(NC2CCCN(C3CCC3)C2)n1 (stereo not shown) [Example 104, 6-chloro-N-(1-cyclobutylpiperidin-3-yl)-4-(1H-pyrrolo[2,3-b]pyridin-3-yl)pyridin-2-amine]
Clc1cc(-c2c[nH]c3ncccc23)cc(N[C@H]2CC[C@H](NC3CCC3)CC2)n1 [Example 105, trans-N-[6-chloro-4-(1H-pyrrolo[2,3-b]pyridin-3-yl)pyridin-2-yl]-N′-cyclobutylcyclohexane-1,4-diamine]
O=C(N[C@H]1CC[C@H](Nc2cc(-c3c[nH]c4ncccc34)cc(Cl)n2)CC1)[C@@H]1CCN1 [Example 106, (2S)—N-(trans-4-{[6-chloro-4-(1H-pyrrolo[2,3-b]pyridin-3-yl)pyridin-2-yl]amino}cyclohexyl)azetidine-2-carboxamide]
O=C(Nc1cc(-c2c[nH]c3ncccc23)cc(Cl)n1)c1cccnc1 [Example 107, N-[6-chloro-4-(1H-pyrrolo[2,3-b]pyridin-3-yl)pyridin-2-yl]pyridine-3-carboxamide]
Clc1cc(-c2c[nH]c3ncccc23)cc(N[C@H]2CC[C@H](NCC3CC3)CC2)n1 [Example 109, trans-N-[6-chloro-4-(1H-pyrrolo[2,3-b]pyridin-3-yl)pyridin-2-yl]-N′-(cyclopropylmethyl)cyclohexane-1,4-diamine]
O=C(Nc1cc(-c2c[nH]c3ncccc23)cc(Cl)n1)C1CCNCC1 [Example 112, N-[6-chloro-4-(1H-pyrrolo[2,3-b]pyridin-3-yl)pyridin-2-yl]piperidine-4-carboxamide]
CC(=O)NCC(C)(C)CNc1cc(-c2c[nH]c3ncccc23)cc(Cl)n1 [Example 113, N-(3-{[6-chloro-4-(1H-pyrrolo[2,3-b]pyridin-3-yl)pyridin-2-yl]amino}-2,2-dimethylpropyl)acetamide]
CN(C)CC(=O)N[C@H]1CC[C@H](Nc2cc(-c3c[nH]c4ncccc34)cc(Cl)n2)CC1 [Example 114, N-(trans-4-{[6-chloro-4-(1H-pyrrolo[2,3-b]pyridin-3-yl)pyridin-2-yl]amino}cyclohexyl)-N^2,N^2-dimethylglycinamide]
O=C1C[C@@H](C(=O)N[C@H]2CC[C@H](Nc3cc(-c4c[nH]c5ncccc45)cc(Cl)n3)CC2)N1 [Example 115, (2S)—N-(trans-4-{[6-chloro-4-(1H-pyrrolo[2,3-b]pyridin-3-yl)pyridin-2-yl]-amino}cyclohexyl)-4-oxo azetidine-2-carboxamide]
CN[C@@H](C)C(=O)N[C@H]1CC[C@H](Nc2cc(-c3c[nH]c4ncccc34)cc(Cl)n2)CC1 [Example 116, N-(trans-4-{[6-chloro-4-(1H-pyrrolo[2,3-b]pyridin-3-yl)pyridin-2-yl]amino}cyclohexyl)-N^2-methyl-L-alaninamide]
O=C(C1CCN1)N1CCC(Nc2cc(-c3c[nH]c4ncccc34)cc(Cl)n2)CC1 (stereo not shown) [Example 117, Azetidin-2-yl(4-{[6-chloro-4-(1H-pyrrolo[2,3-b]pyridin-3-yl)pyridin-2-yl]amino}piperidin-1-yl)methanone]
CN(C)CC(=O)NC1CCCC(Nc2cc(-c3c[nH]c4ncccc34)cc(Cl)n2)C1 (stereo not shown) [Example 118, N-(3-{[6-chloro-4-(1H-pyrrolo[2,3-b]pyridin-3-yl)pyridin-2-yl]amino}cyclohexyl)-N^2,N^2-dimethylglycinamide]
CN1CCC[C@H]1C(=O)NC1CCCC(Nc2cc(-c3c[nH]c4ncccc34)cc(Cl)n2)C1 (stereo partly drawn) [Example 119, N-(3-{[6-chloro-4-(1H-pyrrolo[2,3-b]pyridin-3-yl)pyridin-2-yl]amino}cyclohexyl)-1-methyl-L-prolinamide]
CN(C)CC(C)(C)CNc1cc(-c2c[nH]c3ncccc23)cc(Cl)n1 [Example 121, N′-[6-chloro-4-(1H-pyrrolo[2,3-b]pyridin-3-yl)pyridin-2-yl]-N,N,2,2-tetramethylpropane-1,3-diamine]
CS(=O)(=O)Nc1cc(-c2c[nH]c3ncccc23)cc(Cl)n1 [Example 122, N-[6-chloro-4-(1H-pyrrolo[2,3-b]pyridin-3-yl)pyridin-2-yl]methanesulfonamide]
O=S(=O)(Nc1cc(-c2c[nH]c3ncccc23)cc(Cl)n1)c1ccccc1 [Example 123, N-[6-chloro-4-(1H-pyrrolo[2,3-b]pyridin-3-yl)pyridin-2-yl]benzenesulfonamide]
